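A five-concentration, 48-hour dose response in 96-well plates underlies each endpoint, interpolated linearly between surrounding concentrations. At the GI50, growth is halved.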 The source made the active and inactive calls. Cut-off read from the data, not from the text of the source: active = GI50 up to about 1.1 µM and inactive = higher.
How the values were obtained:
Test in all cases: growth of human tumour cells (NCI), 48 h
SW-620 = test system: SW-620
786-0 = test system: 786-0
HOP-62 = test system: HOP-62
HT-29 = test system: HT-29
K562 = test system: K562
SF-539 = test system: SF-539
OVCAR-3 = test system: OVCAR-3
COLO 205 = test system: COLO 205
HCT-15 = test system: HCT-15
CCRF-CEM = test system: CCRF-CEM
DU-145 = test system: DU-145
RXF 393 = test system: RXF 393
MCF7 = test system: MCF7
HL-60 = test system: HL-60
SNB-19 = test system: SNB-19
RPMI-8226 = test system: RPMI-8226
NCI-H522 = test system: NCI-H522
U-251 = test system: U-251
LOX IMVI = test system: LOX IMVI
SNB-75 = test system: SNB-75

Compound | GI50 (SW-620) | GI50 (786-0) | GI50 (HOP-62) | GI50 (HT-29) | GI50 (K562) | GI50 (SF-539) | GI50 (OVCAR-3) | GI50 (COLO 205) | GI50 (HCT-15) | GI50 (CCRF-CEM) | GI50 (DU-145) | GI50 (RXF 393) | GI50 (MCF7) | GI50 (HL-60) | GI50 (SNB-19) | GI50 (RPMI-8226) | GI50 (NCI-H522) | GI50 (U-251) | GI50 (LOX IMVI) | GI50 (SNB-75)
COc1ccc(NC(=O)C(C#N)=C(SC)SC)cc1 | > 100 µM (inactive) | > 100 µM (inactive) | > 100 µM (inactive) | > 100 µM (inactive) | > 100 µM (inactive) | > 100 µM (inactive) | > 100 µM (inactive) | > 100 µM (inactive) | > 100 µM | > 100 µM (inactive) | > 100 µM (inactive) | > 100 µM (inactive) | > 100 µM (inactive) | 75.3 µM (inactive) | > 100 µM (inactive) | > 100 µM (inactive) | 57.1 µM (inactive) | > 100 µM (inactive) | > 100 µM (inactive) | 
COc1cc(/N=C\N(C)C)c2ncccc2c1 |  | 81.3 µM (inactive) | > 100 µM (inactive) | 69.8 µM (inactive) | 15.8 µM (inactive) | 33.5 µM (inactive) | 56.6 µM (inactive) | > 100 µM (inactive) | 38.1 µM | 28 µM (inactive) | > 100 µM (inactive) | 75.3 µM (inactive) | 48.5 µM (inactive) | 26.8 µM (inactive) | > 100 µM (inactive) | 46.5 µM (inactive) | 68.9 µM (inactive) | 79.3 µM (inactive) | 44.4 µM (inactive) | 52.8 µM (inactive)
CN(C)Cc1cc(C(=O)/C=C/c2ccc(F)cc2)cc(CN(C)C)c1O | 20.4 µM (inactive) | 37.7 µM (inactive) | 21.6 µM (inactive) | 23 µM (inactive) | 17.8 µM (inactive) | 21.1 µM (inactive) | 9.23 µM (inactive) |  | 7.78 µM | 17 µM (inactive) | 42.2 µM (inactive) | 12.9 µM (inactive) | 16.2 µM (inactive) | 11.5 µM (inactive) | 25.4 µM (inactive) | 22.5 µM (inactive) | 15.2 µM (inactive) | 24.4 µM (inactive) | 5.92 µM (inactive) | 22.9 µM (inactive)
c1ccc2[nH]c3[nH]c4[nH]c5ccccc5[nH]c4[nH]c3[nH]c2c1 | > 100 µM (inactive) | > 100 µM (inactive) | > 100 µM (inactive) | > 100 µM (inactive) | > 100 µM (inactive) | > 100 µM (inactive) | > 100 µM (inactive) | > 100 µM (inactive) | > 100 µM | > 100 µM (inactive) | > 100 µM (inactive) | > 100 µM (inactive) | > 100 µM (inactive) | > 100 µM (inactive) | > 100 µM (inactive) | > 100 µM (inactive) | > 100 µM (inactive) | > 100 µM (inactive) | > 100 µM (inactive) | 21 µM (inactive)
COc1ccc2cc(CNCCCCCCNCc3ccc4cc(OC)ccc4c3)ccc2c1 | 0.182 µM (active) | 0.902 µM (active) | 1.64 µM (inactive) | 0.186 µM (active) | 0.0897 µM (active) | 1.51 µM (inactive) | 0.575 µM (active) | 0.154 µM (active) | 0.406 µM | 0.153 µM (active) | 1.58 µM (inactive) | 1.52 µM (inactive) | 0.319 µM (active) | 0.181 µM (active) | 0.785 µM (active) | 0.208 µM (active) | 0.64 µM (active) | 0.231 µM (active) | 0.181 µM (active) | 0.815 µM (active)
CC(=O)Nc1ccc(S(=O)(=O)N=S(C)C)cc1 | > 100 µM (inactive) | > 100 µM (inactive) | > 100 µM (inactive) | > 100 µM (inactive) | > 100 µM (inactive) | > 100 µM (inactive) | > 100 µM (inactive) | > 100 µM (inactive) | > 100 µM | > 100 µM (inactive) | > 100 µM (inactive) | > 100 µM (inactive) | > 100 µM (inactive) | > 100 µM (inactive) | > 100 µM (inactive) | > 100 µM (inactive) | > 100 µM (inactive) | > 100 µM (inactive) | > 100 µM (inactive) | > 100 µM (inactive)
C/C(=N\Nc1nc2ccccc2s1)c1ncccn1 | < 0.0154 µM (active) | 0.0336 µM (active) | 0.131 µM (active) | < 0.01 µM (active) | < 0.0501 µM (active) | 0.0757 µM (active) | < 0.0215 µM (active) | < 0.01 µM (active) | 0.0215 µM | 0.1 µM (active) | 0.258 µM (active) | 1.04 µM (active) | 0.0164 µM (active) | < 0.01 µM (active) | 0.316 µM (active) | 0.0775 µM (active) | 0.0128 µM (active) | < 0.0196 µM (active) |  | 0.617 µM (active)
O=C(c1ccccc1)c1c(-c2ccccc2)[nH]n(-c2ccc([N+](=O)[O-])cc2)c(=O)c1=O | 42.6 µM (inactive) | > 100 µM (inactive) | > 100 µM (inactive) | 36.6 µM (inactive) | 41.5 µM (inactive) | 28.8 µM (inactive) | 56.2 µM (inactive) | > 100 µM (inactive) | 39.5 µM | 47 µM (inactive) | > 100 µM (inactive) | > 100 µM (inactive) | 33.7 µM (inactive) | > 100 µM (inactive) | 6.47 µM (inactive) | 43.9 µM (inactive) | 23.4 µM (inactive) | 5.78 µM (inactive) |  | 
CC1=C(C(=O)NC2CCCCC2)CC(C(=O)NC2CCCCC2)=C(C)N1 | > 100 µM (inactive) | > 100 µM (inactive) | > 100 µM (inactive) |  | 57.4 µM (inactive) | > 100 µM (inactive) | > 100 µM (inactive) | > 100 µM (inactive) | > 100 µM | > 100 µM (inactive) | > 100 µM (inactive) | > 100 µM (inactive) | > 100 µM (inactive) | 71.6 µM (inactive) | > 100 µM (inactive) | > 100 µM (inactive) | > 100 µM (inactive) | > 100 µM (inactive) | > 100 µM (inactive) | 13.7 µM (inactive)
CC12Nc3c(Cl)cc(Cl)cc3N1C(=O)c1ccccc12 (stereo unspecified) | > 100 µM (inactive) | > 100 µM (inactive) | > 100 µM (inactive) | > 100 µM (inactive) | > 10 µM (inactive) | > 100 µM (inactive) | > 100 µM (inactive) | > 100 µM (inactive) | > 100 µM | > 100 µM (inactive) | > 100 µM (inactive) | 78.3 µM (inactive) | > 100 µM (inactive) | 51.6 µM (inactive) |  | > 100 µM (inactive) | 97.1 µM (inactive) | > 100 µM (inactive) | 96.6 µM (inactive) | > 100 µM (inactive)
C=C1c2nc3ccccc3n2C=C(c2ccc(Cl)cc2)N1c1ccc(OC)cc1 | 17.7 µM (inactive) | 4.39 µM (inactive) |  |  | 25.6 µM (inactive) | 5.87 µM (inactive) | 10.8 µM (inactive) | 21.8 µM (inactive) | 10.1 µM | > 100 µM (inactive) | 15.6 µM (inactive) | 10.1 µM (inactive) | 7.4 µM (inactive) | 76.7 µM (inactive) | 3.44 µM (inactive) | 14.5 µM (inactive) | 4 µM (inactive) | 8.38 µM (inactive) | 36.9 µM (inactive) | 2.67 µM (inactive)
COc1ccc(C2C=C(c3ccccc3)Nc3nnnn32)cc1 (stereo unspecified) | 37.3 µM (inactive) | 27.5 µM (inactive) | 25.5 µM (inactive) | 18.1 µM (inactive) | 50.6 µM (inactive) | 23.7 µM (inactive) | 24.9 µM (inactive) | > 100 µM (inactive) | 31 µM | > 100 µM (inactive) | 28.4 µM (inactive) | 20.3 µM (inactive) | 20.2 µM (inactive) | > 100 µM (inactive) | 97.9 µM (inactive) | 51.9 µM (inactive) | 17.9 µM (inactive) | 19.7 µM (inactive) | 41.7 µM (inactive) | 
CC(C)N(C(=O)C12C3(C(=O)OC(C)(C)C)C4C5(C#N)C3C1(C(=O)OC(C)(C)C)C5C42C(=O)OC(C)(C)C)C(C)C (stereo unspecified) | 24.9 µM (inactive) | 34.6 µM (inactive) | > 100 µM (inactive) | 34.6 µM (inactive) | 34.6 µM (inactive) | > 100 µM (inactive) | 47.8 µM (inactive) | 21.5 µM (inactive) | 89.5 µM | 10.9 µM (inactive) | > 100 µM (inactive) | 12.9 µM (inactive) | 14.4 µM (inactive) | 20.1 µM (inactive) | > 100 µM (inactive) |  | 35.3 µM (inactive) | 83.9 µM (inactive) | 14.4 µM (inactive) | 0.149 µM (active)
C1CSCCSCCCSCCSCCCSCCSCCCSCCSC1 | > 100 µM (inactive) | > 100 µM (inactive) | > 100 µM (inactive) | > 100 µM (inactive) | > 100 µM (inactive) | > 100 µM (inactive) | > 100 µM (inactive) | > 100 µM (inactive) | > 100 µM | > 100 µM (inactive) | > 100 µM (inactive) | > 100 µM (inactive) | > 100 µM (inactive) | > 100 µM (inactive) | > 100 µM (inactive) | 86.1 µM (inactive) | > 100 µM (inactive) | > 100 µM (inactive) | > 100 µM (inactive) | 
CS/C=C\C(=O)O[C@H]1C[C@@H]2[C@@H](O)c3occ(C)c3C[C@]2(C)[C@@H](C)C1 | 33.3 µM (inactive) | 16.6 µM (inactive) | 23.2 µM (inactive) | 22.6 µM (inactive) | 15.4 µM (inactive) | 21.7 µM (inactive) | 16.4 µM (inactive) | 17.9 µM (inactive) | 30.1 µM | 27.3 µM (inactive) | 27.9 µM (inactive) | 22.9 µM (inactive) | 31.9 µM (inactive) | 14.9 µM (inactive) | 35.6 µM (inactive) | 30.4 µM (inactive) | 23.2 µM (inactive) | 2.96 µM (inactive) | 17.6 µM (inactive) | 
